Solubility and Activity data for three compounds are collected here from ChEMBL document CHEMBL1138303, “Putative bioactive conformations of amide linked cyclic myelin basic protein peptide analogues associated with experimental autoimmune encephalomyelitis” (J Med Chem, 2007).

A short description of series [1]: Solubility per 100 uL of the compound. Type of series: physicochemical.
For a further series, the species on record is Rattus norvegicus. In words: Inhibition of encephalitogenic MBP(74-85)-induced encephalomyelitis in Lewis rat. Type of series: functional, organism-based.

Calls of active or inactive are those of the source. No cut-off for these calls is given here. Peptide text beside a SMILES is read from it.

For `CC[C@H](C)[C@@H]1NC(=O)[C@H](CC(N)=O)NC(=O)[C@H](CCCCN)NC(=O)[C@H](Cc2ccccc2)NC(=O)[C@H](Cc2ccccc2)NC(=O)[C@H](Cc2c[nH]cn2)NC(=O)[C@H](C(C)C)NC(=O)[C@@H]2CCCN2C(=O)[C@H]([C@@H](C)O)NC(=O)[C@H](CCCNC(=N)N)NC(=O)[C@@H]2CCCN2C(=O)[C@H]([C@@H](C)O)NC(=O)[C@H](C(C)C)NC1=O`, the Solubility in series [1] was determined as 16 mg.

In series [1], `CC[C@H](C)[C@@H]1NC(=O)[C@H](CC(N)=O)NC(=O)[C@H](C)NC(=O)[C@H](Cc2ccccc2)NC(=O)[C@H](Cc2ccccc2)NC(=O)[C@H](Cc2c[nH]cn2)NC(=O)[C@H](C(C)C)NC(=O)[C@@H]2CCCN2C(=O)[C@H]([C@@H](C)O)NC(=O)[C@H](CCCNC(=N)N)NC(=O)[C@H](C)NC(=O)[C@H]([C@@H](C)O)NC(=O)[C@H](C(C)C)NC1=O` (HELM PEPTIDE1{A.N.I.V.T.A.R.T.P.V.H.F.F}$PEPTIDE1,PEPTIDE1,1:R1-13:R2$$$V2.0) came in with a Solubility of 1.15 mg. Moreover, the result in the series listed under Rattus norvegicus was Active.

Compound `CC[C@H](C)[C@@H]1NC(=O)[C@H](CC(N)=O)NC(=O)[C@H](CCCNC(=N)N)NC(=O)[C@H](Cc2ccccc2)NC(=O)[C@H](Cc2ccccc2)NC(=O)[C@H](Cc2c[nH]cn2)NC(=O)[C@H](C(C)C)NC(=O)[C@@H]2CCCN2C(=O)[C@H]([C@@H](C)O)NC(=O)[C@H](CCCNC(=N)N)NC(=O)[C@H](C)NC(=O)[C@H]([C@@H](C)O)NC(=O)[C@H](C(C)C)NC1=O` (HELM PEPTIDE1{A.R.T.P.V.H.F.F.R.N.I.V.T}$PEPTIDE1,PEPTIDE1,1:R1-13:R2$$$V2.0) gave a Solubility in series [1] of 16.25 mg. For the same compound, the outcome in the series listed under Rattus norvegicus was Active.
